pIC50: −log10 of the molar value.
System: IL-12
Assay: Human in vitro assay: inhibition of IL-12 production in IFNγ/LPS- or IFNγ/SAC-stimulated human PBMC or THP-1 cells (ELISA)
Type: cell-based
Details: read-out: IC50 Range (representative in vitro IC50 data)
From the text: The biological activities of a heterocyclic compound can be evaluated by a number of cell-based assays. One of such assays can be conducted using cells from human peripheral blood mononuclear cells (PBMC) or human monocytic cell line (THP-1). The cells are stimulated with a combination of human interferon-γ (IFNγ) and lipopolysaccharide or a combination of IFNγ and Staphylococcus aureus Cowan I in the presence of a test compound. The level of inhibition of IL-12 production can be measured by determining the amount of p70 by using a sandwich ELISA assay with anti-human IL-12 antibodies. IC50 of the test compound can then be determined. Specifically, PBMC or THP-1 cells are incubated with the test compound. Cell viability was assessed using the bioreduction of MTS [3-(4,5-dimethylthiazol-2-yl)-5-(3-carboxymethoxyphenyl)-2-(4-sulfophenyl)-2H-tetrazolium](Promega, Madison, Wis.).
Human In Vitro Assay. Human PBMC were isolated by centrifugation using Ficoll-Paque (Pharmacia Biotech, Uppsala, Sweden) and prepared in RPMI medium supplemented with 10% fetal calf serum (FCS), 100 U/mL penicillin, and 100 μg/mL streptomycin. PBMC were plated in wells of a 96-well plate at a concentration of 5×10^5 cells/well, and primed by adding IFNγ (30 U/mL) for 22 h and stimulated by adding LPS (1 μg/mL), or by adding IFNγ (100 U/mL) and then stimulated by adding SAC (0.01%). A test pyrimidine compound was dissolved in DMSO, and added to wells of the 96-well plate. The final DMSO concentration was adjusted to 0.25% in all cultures, including the compound-free control. Human THP-1 cells were plated in wells, primed by adding IFNγ (100 U/mL) for 22 h and stimulated by adding SAC (0.025%) in the presence of different concentrations of the pyrimidine compound. Cell-free supernatants were taken 18 h later for measurement of cytokines. Cell viability was assessed using the bioreduction of MTS. Cell survival was estimated by determining the ratio of the absorbance in compound-treated groups versus compound-free control.
The supernatant was assayed for the amount of IL-12p40, IL-12p70, or IL-10 by using a sandwich ELISA with anti-human antibodies, i.e., a Human IL-12 p40 ELISA kit from R&D Systems (Berkeley, Calif.), and a Human IL-12 p70 or IL-10 ELISA kit from Endogen (Cambridge, Mass.). Assays were based on the manufacturer's instructions.
The biological activities of pyrimidine compounds were tested on human PBMC or THP-1 cells.

Compound	pIC50
NC(=O)c1ccc(NC(=O)c2cc(OCCN3CCOCC3)nc(N3CCOCC3)n2)nc1 [Compound 150, 2-Morpholin-4-yl-6-(2-morpholin-4-yl-ethoxy)-pyrimidine-4-carboxylic acid (5-carbamoyl-pyridin-2-yl)-amide]	> 6.00
CN1C(=O)c2ccc(NC(=O)c3cc(OCCN4CCOCC4)nc(N4CCOCC4)n3)cc2C1=O [Compound 274, 2-Morpholin-4-yl-6-(2-morpholin-4-yl-ethoxy)-pyrimidine-4-carboxylic acid (2-methyl-1,3-dioxo-2,3-dihydro-1H-isoindol-5-yl)-amide]	≤ 6.00
NC(=O)c1cccc(NC(=O)c2cc(OCCN3CCOCC3)nc(N3CCOCC3)n2)c1 [Compound 25, 2-Morpholin-4-yl-6-(2-morpholin-4-yl-ethoxy)-pyrimidine-4-carboxylic acid (3-carbamoyl-phenyl)-amide]	> 6.00
O=C(Nc1cccc(F)c1)Nc1cc(OCCN2CCOCC2)nc(N2CCOCC2)n1 [Compound 125, 1-(3-Fluoro-phenyl)-3-[2-morpholin-4-yl-6-(2-morpholin-4-yl-ethoxy)-pyrimidin-4-yl]-urea]	> 6.00
O=C(Nc1cc(OCCN2CCOCC2)nc(N2CCOCC2)n1)Nc1cc(-c2ccco2)n[nH]1 [Compound 144, 1-(5-Furan-2-yl-2H-pyrazol-3-yl)-3-[2-morpholin-4-yl-6-(2-morpholin-4-yl-ethoxy)-pyrimidin-4-yl]-urea]	≤ 6.00
Cc1[nH]c2ccc(NC(=O)c3cc(NCC(=O)N(C)CCO)nc(N4CCOCC4)n3)cc2c1C [Compound 101, 6-({[(2-Hydroxy-ethyl)-methyl-carbamoyl]-methyl}-amino)-2-morpholin-4-yl-pyrimidine-4-carboxylic acid (2,3-dimethyl-1H-indol-5-yl)-amide]	> 6.00
O=C(Nc1cccc(N2CCCC2)c1)c1cc(OCCN2CCOCC2)nc(N2CCOCC2)n1 [Compound 278, 2-Morpholin-4-yl-6-(2-morpholin-4-yl-ethoxy)-pyrimidine-4-carboxylic acid (3-pyrrolidin-1-yl-phenyl)-amide]	> 6.00
O=C(Nc1ccc2[nH]c(C(F)(F)F)nc2c1)c1cc(NCCN2CCOCC2)nc(N2CCOCC2)n1 [Compound 190, 2-morpholino-6-(2-morpholinoethylamino)-N-(2-(trifluoromethyl)-1H-benzo[d]imidazol-5-yl)pyrimidine-4-carboxamide]	≤ 6.00
Cc1[nH]c2ccc(NC(=O)c3cc(N4CCOCC4)nc(N4CCOCC4)n3)cc2c1C [Compound 22, 2,6-Di-morpholin-4-yl-pyrimidine-4-carboxylic acid (2,3-dimethyl-1H-indol-5-yl)-amide]	> 6.00
Cc1cccc(NC(=O)Nc2cc(OCCN3CCOCC3)nc(N3CCOCC3)n2)c1 [Compound 9, 1-[2-Morpholin-4-yl-6-(2-morpholin-4-yl-ethoxy)-pyrimidin-4-yl]-3-m-tolyl-urea]	> 6.00
CN(CCO)c1cc(NC(=O)Nc2ccc3[nH]c4c(c3c2)CCCC4)nc(N2CCOCC2)n1 [Compound 326, 1-{6-[(2-Hydroxy-ethyl)-methyl-amino]-2-morpholin-4-yl-pyrimidin-4-yl}-3-(6,7,8,9-tetrahydro-5H-carbazol-3-yl)-urea]	> 6.00
O=C(Nc1cccnc1)c1cc(OCCN2CCOCC2)nc(N2CCOCC2)n1 [Compound 292, 2-Morpholin-4-yl-6-(2-morpholin-4-yl-ethoxy)-pyrimidine-4-carboxylic acid pyridin-3-ylamide]	≤ 6.00
CC(=O)N1CCN(C(=O)CNc2cc(C(=O)Nc3ccc4[nH]c(C)c(C)c4c3)nc(N3CCOCC3)n2)CC1 [Compound 102, 6-[2-(4-Acetyl-piperazin-1-yl)-2-oxo-ethylamino]-2-morpholin-4-yl-pyrimidine-4-carboxylic acid (2,3-dimethyl-1H-indol-5-yl)-amide]	> 6.00

The next lines start with the values.

pIC50	Compound
> 6.00	CONc1cc(C(=O)Nc2cccc(N(C)C)c2)nc(N2CCOCC2)c1 [Compound 160, 4-Methoxyamino-6-morpholin-4-yl-pyridine-2-carboxylic acid (3-dimethylamino-phenyl)-amide]
> 6.00	Cc1[nH]c2ccc(NC(=O)c3cc(OCCc4ccccn4)nc(N4CCOCC4)n3)cc2c1C [Compound 2, 2-Morpholin-4-yl-6-(2-pyridin-2-yl-ethoxy)-pyrimidine-4-carboxylic acid (2,3-dimethyl-1H-indol-5-yl)-amide]
≤ 6.00	O=C(Oc1ccc2[nH]ccc2c1)c1cc(OCCc2ccccn2)nc(N2CCOCC2)n1 [Compound 72, 2-Morpholin-4-yl-6-(2-pyridin-2-yl-ethoxy)-pyrimidine-4-carboxylic acid 1H-indol-5-yl ester]
> 6.00	Cc1[nH]c2ccc(NC(=O)c3cc(N(C)CC(=O)N4CCOCC4)nc(N4CCOCC4)n3)cc2c1C [Compound 114, 6-[Methyl-(2-morpholin-4-yl-2-oxo-ethyl)-amino]-2-morpholin-4-yl-pyrimidine-4-carboxylic acid (2,3-dimethyl-1H-indol-5-yl)-amide]
> 6.00	CCN(CC)c1cc(C(=O)Nc2ccc3[nH]c(C)c(C)c3c2)nc(N2CCOCC2)n1 [Compound 93, 6-Diethylamino-2-morpholin-4-yl-pyrimidine-4-carboxylic acid (2,3-dimethyl-1H-indol-5-yl)-amide]
> 6.00	Cc1cccc(NC(=O)c2cc(OCCc3ccccn3)nc(N3CCOCC3)n2)c1 [Compound 5, 2-Morpholin-4-yl-6-(2-pyridin-2-yl-ethoxy)-pyrimidine-4-carboxylic acid m-tolylamide]
≤ 6.00	Cc1ccc2nc(NC(=O)c3cc(N4CCOCC4)nc(OCCc4ccccn4)n3)sc2c1 [Compound 64, 6-Morpholin-4-yl-2-(2-pyridin-2-yl-ethoxy)-pyrimidine-4-carboxylic acid (6-methyl-benzothiazol-2-yl)-amide]
> 6.00	O=C(Nc1cccc(-n2cccn2)c1)c1cc(OCC(=O)N2CCCCC2)nc(N2CCOCC2)n1 [Compound 115, 2-Morpholin-4-yl-6-(2-oxo-2-piperidin-1-yl-ethoxy)-pyrimidine-4-carboxylic acid (3-pyrazol-1-yl-phenyl)-amide]
≤ 6.00	COCCN(C)c1cc(C(=O)Nc2ccc3c(c2)CCN3C(C)=O)nc(N2CCOCC2)n1 [Compound 206, N-(1-acetylindolin-5-yl)-6-((2-methoxyethyl)(methyl)amino)-2-morpholinopyrimidine-4-carboxamide]
≤ 6.00	COCCN(C)c1cc(C(=O)Nc2ccc3c(c2)OCO3)nc(N2CCOCC2)n1 [Compound 210, N-(benzo[d][1,3]dioxol-5-yl)-6-((2-methoxyethyl)(methyl)amino)-2-morpholinopyrimidine-4-carboxamide]
≤ 6.00	O=C(Nc1cc(OCCc2ccccn2)nc(N2CCOCC2)n1)c1ccc2[nH]ccc2c1 [Compound 73, 1H-Indole-5-carboxylic acid [2-morpholin-4-yl-6-(2-pyridin-2-yl-ethoxy)-pyrimidin-4-yl]-amide]
≤ 6.00	Cc1cccc(NC(=O)c2cc(OCCN3CCOCC3)nc(N3CCOCC3)n2)c1 [Compound 56, 2-Morpholin-4-yl-6-(2-morpholin-4-yl-ethoxy)-pyrimidine-4-carboxylic acid m-tolylamide]
> 6.00	COCCOc1cc(C(=O)Nc2ccc3[nH]c(C)c(C)c3c2)nc(N2CCOCC2)n1 [Compound 301, 6-(2-Methoxy-ethoxy)-2-morpholin-4-yl-pyrimidine-4-carboxylic acid (2,3-dimethyl-1H-indol-5-yl)-amide]
≤ 6.00	COCCN(C)c1cc(C(=O)Nc2cccc(-c3cnc4ccccc4n3)c2)nc(N2CCOCC2)n1 [Compound 242, 6-[(2-Methoxy-ethyl)-methyl-amino]-2-morpholin-4-yl-pyrimidine-4-carboxylic acid (3-quinoxalin-2-yl-phenyl)-amide]
> 6.00	Cc1[nH]c2ccc(NC(=O)c3cc(O)nc(N4CCOCC4)n3)cc2c1C [Compound 254, N-(2,3-dimethyl-1H-indol-5-yl)-6-hydroxy-2-morpholinopyrimidine-4-carboxamide]
≤ 6.00	Cc1cccc(NC(=O)c2cc(N3CCOCC3)nc(OCCc3ccccn3)n2)c1 [Compound 62, 6-Morpholin-4-yl-2-(2-pyridin-2-yl-ethoxy)-pyrimidine-4-carboxylic acid m-tolylamide]
> 6.00	CON(C)c1cc(C(=O)Nc2ccc3[nH]c(C)c(C)c3c2)nc(N2CCOCC2)n1 [Compound 193, N-(2,3-dimethyl-1H-indol-5-yl)-6-(methoxy(methyl)amino)-2-morpholinopyrimidine-4-carboxamide]

— US20060223996A1, “IL-12 modulatory compounds” (Synta Pharmaceuticals Corp., priority 2004, published 2006)
